Results as given in patent publication US20230219978A1, “COMPOUND HAVING MACROCYCLIC STRUCTURE AND USE THEREOF” (SCINNOHUB PHARMACEUTICAL CO., LTD, priority 2020, published 2023).
Each block holds one compound with its values, some of them ahead of it.

Assays:
Format in all cases: biochemical
RET wt = biological target: T1, RET wt (Homo sapiens, UniProt P07949); experiment: In vitro kinase activity assay (mobility shift assay), RET wild type; settings: ATP 16 μM, reaction time 60 min
T1 construct: purchased Carna 08-159
T1 sequence (P07949 29-1114): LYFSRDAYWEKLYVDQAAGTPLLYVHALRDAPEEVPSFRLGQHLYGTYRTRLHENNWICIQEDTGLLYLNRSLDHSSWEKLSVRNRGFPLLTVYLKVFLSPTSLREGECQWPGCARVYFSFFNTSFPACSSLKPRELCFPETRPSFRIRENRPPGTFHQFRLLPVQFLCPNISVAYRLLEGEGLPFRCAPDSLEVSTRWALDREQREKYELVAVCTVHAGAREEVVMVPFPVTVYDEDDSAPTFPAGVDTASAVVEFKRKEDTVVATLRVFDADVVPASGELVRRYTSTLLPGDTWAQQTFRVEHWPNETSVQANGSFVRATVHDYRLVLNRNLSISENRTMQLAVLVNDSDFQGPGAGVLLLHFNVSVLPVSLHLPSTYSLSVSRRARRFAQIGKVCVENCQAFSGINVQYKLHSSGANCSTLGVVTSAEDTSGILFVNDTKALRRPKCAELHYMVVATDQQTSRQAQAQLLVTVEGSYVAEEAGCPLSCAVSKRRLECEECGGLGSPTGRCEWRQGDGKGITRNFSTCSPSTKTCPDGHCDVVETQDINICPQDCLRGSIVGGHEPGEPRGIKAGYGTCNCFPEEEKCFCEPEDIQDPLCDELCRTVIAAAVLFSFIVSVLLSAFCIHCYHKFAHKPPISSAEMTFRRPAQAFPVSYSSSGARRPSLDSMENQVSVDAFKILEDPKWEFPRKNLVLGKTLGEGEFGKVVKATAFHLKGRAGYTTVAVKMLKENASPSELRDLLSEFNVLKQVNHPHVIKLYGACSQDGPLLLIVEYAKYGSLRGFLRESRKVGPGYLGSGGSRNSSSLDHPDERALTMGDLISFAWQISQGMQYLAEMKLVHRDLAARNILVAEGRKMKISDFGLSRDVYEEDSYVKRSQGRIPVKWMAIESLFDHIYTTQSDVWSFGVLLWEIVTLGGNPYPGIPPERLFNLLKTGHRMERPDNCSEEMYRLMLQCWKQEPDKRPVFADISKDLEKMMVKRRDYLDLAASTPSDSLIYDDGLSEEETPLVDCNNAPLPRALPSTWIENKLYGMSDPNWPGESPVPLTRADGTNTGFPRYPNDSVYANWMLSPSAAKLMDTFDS
Experimental: (§1) The IC50 (half inhibitory concentration) values of the compounds were used as an indicator to evaluate the inhibitory effect of the compound on RET wild-type, RET mutant, TRKa, SRC, BTK and/or mutated BTK kinase.
(§2) Using the method of Mobility shift assay, the compounds were tested for inhibitory activity against the following kinases: RET wild type, RET mutant, TRKa, SRC, BTK and/or mutated BTK. The initial concentration of the test compound was 1000 nM, 3-fold dilution, 10 concentrations, detected in a well for each concentration.
(§3) 20 mM hydroxyethylpiperazineethanesulfonic acid (Hepes) (pH 7.5) buffer, 10 mM MgCl2, 1 mM ethylene glycol bis(aminoethyl ether)tetraacetic acid (EGTA), 0.02% polyoxyethylene lauryl ether (Brij35), 0.02 mg/ml […] (BSA), 0.1 mM Na3VO4, 2 mM dithiothreitol (DTT), 1% DMSO.
(§4) The test compounds were dissolved in 100% dimethyl sulfoxide (DMSO) system, and prepared as 10 mM for use, and stored in a nitrogen cabinet away from light.
(§5) • (1) Preparing 1× kinase reaction buffer. • (2) Preparation of compound concentration gradient: the initial concentration of the compounds was 1000 nM, which was diluted as 100-fold final concentration of solution in 100% dimethyl sulfoxide (DMSO) in a 384-well plate. The compound was accurately 3-fold diluted with the kinase buffer solution, 10 concentrations in total, and the final concentration was 0.0508 nM. The 100-fold final concentration of solution in 100% dimethyl sulfoxide (DMSO) was obtained by dilution in 384 source plate. The liquid separator Echo 550 was used to transfer 250 nl of 100-fold final concentration of compound to the target 384 well plate. 250 nl of DMSO was added to the positive and negative control wells. • (3) 2.5-fold final concentration of kinase solution was prepared by the 1× kinase buffer. • (4) 10 4, of 2.5-fold final concentration of kinase solution was added to the compound well and the positive control well, respectively; 10 4, of 1× kinase buffer was added to the negative control well. • (5) After centrifuging at 1000 rpm for 30 second, the reaction plate was shaken and mixed, followed by incubation at room temperature for 10 min. • (6) a mixed solution of 25/15-fold final concentration of adenosine triphosphate (ATP) and kinase substrate was prepared by 1× kinase buffer. • (7) The mixed solution (15 μL) of 25/15-fold final concentration of adenosine triphosphate (ATP) and substrate was added to initiate the reaction. • (8) 384-well plate was centrifuged at 1000 rpm for 30 second, shaken and mixed well, and then incubated at room temperature for 30-240 min. • (9) After stopping the kinase reaction, the plate was centrifugated at 1000 rpm for 30 second, shaken and mixed well. • (10)The conversion rate was read with Caliper EZ Reader.
(§6) wherein Conversion%_sample is the conversion rate reading of the sample; Conversion%_min: the mean value of negative control wells, representing the conversion rate reading of wells without enzymes; Conversion%_max: the mean value of positive control wells, representing the conversion rate reading of wells without compound inhibition.
(§7) The log value of concentration was taken as the X axis, and the percentage inhibition rate was taken as the Y axis. Graphpad 6.0 analysis software was used to fit the dose-response curve, so as to obtain the IC50 value of each compound on the enzyme activity

RET G810R = biological target: T2, RET G810R (Homo sapiens, UniProt P07949, G810R); experiment: In vitro kinase activity assay (mobility shift assay), RET G810R; settings: ATP 201 μM, reaction time 4 h
T2 construct: purchased Proqinase 1724-0000-1
T2 sequence (P07949 29-1114 G810R): as the sequence (P07949 29-1114) above, with G782R counted along it
Experimental: as §1, §2, §3, §4, §5, §6, §7

RET V804M = biological target: T3, RET V804M (Homo sapiens, UniProt P07949, V804M); experiment: In vitro kinase activity assay (mobility shift assay), RET V804M; settings: ATP 5.4 μM, reaction time 60 min
T3 construct: purchased signalchem R02-12GG
T3 sequence (P07949 29-1114 V804M): as the sequence (P07949 29-1114) above, with V776M counted along it
Experimental: as §1, §2, §3, §4, §5, §6, §7

BTK = biological target: T4, BTK (Homo sapiens, UniProt Q06187); experiment: In vitro kinase activity assay (mobility shift assay), BTK; settings: ATP 71 μM, reaction time 30 min
T4 construct: purchased Carna 08-180
T4 sequence (Q06187 whole entry): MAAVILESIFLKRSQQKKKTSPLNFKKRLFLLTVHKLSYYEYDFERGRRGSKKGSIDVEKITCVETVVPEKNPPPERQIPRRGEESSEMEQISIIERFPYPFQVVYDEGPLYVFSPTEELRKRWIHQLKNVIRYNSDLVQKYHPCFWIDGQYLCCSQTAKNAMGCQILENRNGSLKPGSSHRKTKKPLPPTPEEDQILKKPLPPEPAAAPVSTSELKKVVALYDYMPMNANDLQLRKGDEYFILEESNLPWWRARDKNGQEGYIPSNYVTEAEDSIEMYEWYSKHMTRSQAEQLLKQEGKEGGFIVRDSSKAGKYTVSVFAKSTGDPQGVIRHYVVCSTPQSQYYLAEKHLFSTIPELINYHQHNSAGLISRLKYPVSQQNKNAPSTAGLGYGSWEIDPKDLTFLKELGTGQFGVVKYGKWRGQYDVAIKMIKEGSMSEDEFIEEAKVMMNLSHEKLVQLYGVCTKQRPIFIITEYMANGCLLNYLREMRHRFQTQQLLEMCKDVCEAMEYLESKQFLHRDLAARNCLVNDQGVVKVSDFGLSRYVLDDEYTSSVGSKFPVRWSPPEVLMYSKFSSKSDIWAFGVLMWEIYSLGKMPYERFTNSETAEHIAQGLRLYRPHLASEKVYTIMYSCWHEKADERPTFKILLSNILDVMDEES
Experimental: as §1, §2, §3, §4, §5, §6, §7

TRKa = biological target: T5, TRKa (Homo sapiens, UniProt P04629); experiment: In vitro kinase activity assay (mobility shift assay), TRKa; settings: ATP 47.8 μM, reaction time 30 min
T5 construct: purchased Carna 08-186
T5 sequence (P04629 33-796): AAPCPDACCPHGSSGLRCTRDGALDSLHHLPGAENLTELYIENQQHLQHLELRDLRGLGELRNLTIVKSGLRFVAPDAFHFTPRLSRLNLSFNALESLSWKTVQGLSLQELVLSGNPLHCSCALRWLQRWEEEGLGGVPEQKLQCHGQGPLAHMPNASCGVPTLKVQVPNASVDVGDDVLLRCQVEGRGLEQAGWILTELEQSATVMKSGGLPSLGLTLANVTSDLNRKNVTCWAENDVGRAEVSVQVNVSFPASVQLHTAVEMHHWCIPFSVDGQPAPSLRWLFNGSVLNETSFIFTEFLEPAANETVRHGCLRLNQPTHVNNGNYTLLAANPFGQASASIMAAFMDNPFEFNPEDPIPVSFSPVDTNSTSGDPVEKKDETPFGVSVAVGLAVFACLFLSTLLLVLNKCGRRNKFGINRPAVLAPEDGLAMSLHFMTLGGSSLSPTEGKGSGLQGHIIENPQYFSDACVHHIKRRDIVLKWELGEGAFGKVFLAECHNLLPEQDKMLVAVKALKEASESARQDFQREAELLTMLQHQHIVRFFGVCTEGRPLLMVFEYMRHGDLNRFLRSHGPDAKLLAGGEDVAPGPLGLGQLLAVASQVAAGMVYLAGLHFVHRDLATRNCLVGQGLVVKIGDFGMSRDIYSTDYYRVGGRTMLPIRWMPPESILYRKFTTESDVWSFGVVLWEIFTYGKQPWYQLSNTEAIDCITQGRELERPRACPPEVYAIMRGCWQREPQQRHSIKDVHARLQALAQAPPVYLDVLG
Experimental: as §1, §2, §3, §4, §5, §6, §7

SMILES: COC(=O)NC1CC=C(c2cn3ncc4c3nc2NCc2cc(F)cnc2O[C@@H](C)CNC4=O)CC1 (stereo partly drawn) [Compound 43, methyl (4((S, 1^3E, 1^4E)-4^5-fluoro-6-methyl-9-oxo-5-oxa-2,8-diaza-1(5,3)-pyrazolo[1,5-a]pyrimidin-4(3,2)-pyridinacyclononaphan-1^6-yl)cyclohex-3-en-1-yl)carbamate]
IC50 (RET wt): 68 nM | IC50 (RET G810R): > 10000 nM | IC50 (RET V804M): > 10000 nM | IC50 (BTK): > 10000 nM

SMILES: O=C1N[C@H]2C[C@H](C2)Oc2ncc(F)cc2CNc2nc3c1cnn3cc2-c1ccccc1 [Compound 29]
IC50 (RET wt): 20 nM | IC50 (TRKa): > 10000 nM

SMILES: C[C@H]1CNC(=O)c2cnn3cc(-c4ccccc4F)c(nc23)NCc2cc(F)cnc2O1 [Compound 6, (S, 1^3E, 1^4E)-1^6-(2-fluorophenyl)-4^5-fluoro-6-methyl-5-oxa-2,8-diaza-1(5,3)-pyrazolo[1,5-a]pyrimidina-4(3,2)-pyridinacyclononaphan-9-one]
IC50 (RET wt): 5.1 nM | IC50 (TRKa): 1340 nM

SMILES: C[C@H]1CNC(=O)c2cnn3c(N)c(-c4ccc(N)cc4)c(nc23)NCc2cc(F)cnc2O1 [Example 60, (S, 1^3E, 1^4E)-1^7-amino-1^6-(4-aminophenyl)-4^5-fluoro-6-methyl-5-oxa-2,8-diaza-1(5,3)-pyrazolino[1,5-a] pyrimidin-4(3,2)-pyridinacyclononaphan-9-one]
IC50 (RET wt): 3.5 nM | IC50 (RET G810R): 361 nM | IC50 (BTK): 3.6 nM

SMILES: C[C@H]1CNC(=O)c2cnn3c(N)c(-c4cnn(C)c4)c(nc23)NCc2cc(F)cnc2O1 [Example 82, (S, 1^3E, 1^4E)-1^7-amino-4^5-fluoro-6-methyl-1^6-(1-methyl-1H-pyrazol-4-yl)-5-oxa-2,8-diaza-1(5,3)-pyrazolo[1,5-a]pyrimidin-4(3,2)-pyridinacyclononaphan-9-one]
IC50 (RET wt): 1.1 nM | IC50 (RET G810R): 138 nM | IC50 (RET V804M): 9.5 nM

SMILES: C[C@H]1CNC(=O)c2cnn3cc(-c4ccccc4)c(nc23)NCc2cc(Cl)cnc2O1 [Compound 47, (S, 1^3E, 1^4E)-4^5-chloro-6-methyl-1^6-phenyl-5-oxa-2,8-diaza-1(5,3)-pyrazolo[1,5-a]pyrimidina-4(3,2)-pyridinacyclononaphan-9-one]
IC50 (RET wt): 26 nM | IC50 (RET G810R): > 1000 nM | IC50 (RET V804M): > 1000 nM

SMILES: C[C@H]1CNC(=O)c2cnn3c(N)c(-c4ccc(NC(=O)OCC(F)(F)F)cc4)c(nc23)NCc2cc(F)cnc2O1 [Example 68, trifluoroethyl (4-((S, 1^3E, 1^4E)-1^7-amino-4^5-fluoro-6-methyl-9-oxo-5-oxa-2,8-diaza-1(5,3)-pyrazolino [1,5-a]pyrimidin-4(3,2)-pyridinacyclononaphan-1^6-yl)-phenyl)carbamate]
IC50 (RET wt): 6.2 nM | IC50 (RET G810R): 155 nM | IC50 (RET V804M): 15 nM

SMILES: CCOC(=O)Nc1ccc(-c2c3nc4c(cnn4c2N)C(=O)NC[C@H](C)Oc2ncc(F)cc2CN3)cc1F [Example 69, ethyl (4-((S, 1^3E, 1^4E)-1^7-amino-4^5-fluoro-6-methyl-9-oxo-5-oxa-2,8-diaza-1(5,3)-pyrazolo[1,5-a]pyrimidin-4(3,2)-pyridinacyclononaphan-1^6-yl)-2-fluorophenyl)carbamate]
IC50 (RET wt): 0.87 nM | IC50 (RET G810R): 16 nM | IC50 (RET V804M): 2.8 nM

SMILES: CCOC(=O)Nc1c(F)cc(-c2c3nc4c(cnn4c2N)C(=O)NC[C@H](C)Oc2ncc(F)cc2CN3)cc1F [Example 70, (S, 1^3E, 1^4E)-1^7-amino-4^5-fluoro-6-methyl-1^6-(6^2′^6-difluoro-6^1-(ethoxycarbonyl)amino-4-yl)phenyl-5-oxa-2,8-diaza-1(5,3)-pyrazolo[1,5-a]pyrimidinyl-4(3,2)-pyridinacyclononaphan-9-one]
IC50 (RET wt): 15 nM | IC50 (RET G810R): > 1000 nM | IC50 (RET V804M): 551 nM

SMILES: C[C@H]1CNC(=O)c2cnn3cc(-c4ccc5[nH]c(=O)[nH]c5c4)c(nc23)NCc2cc(F)cnc2O1 [Compound 38, (S, 1^3E, 1^4E)-4^5-fluoro-6-methyl-1^6-(2-oxo-2,3-dihydro-1H-benzo[d]imidazol-5-yl)-5-oxo-2,8-diaza-1(5,3)-pyrazolo[1,5-a]pyrimidin-4(3,2)-pyridinacyclononaphan-9-one]
IC50 (RET wt): > 1000 nM | IC50 (RET G810R): > 1000 nM | IC50 (BTK): > 1000 nM

SMILES: CNC(=O)Nc1ccc(-c2cn3ncc4c3nc2NCc2cc(F)cnc2O[C@@H](C)CNC4=O)cc1 [Compound 32, 1-(4-((S, 1^3E, 1^4E)-4^5-fluoro-6-methyl-9-oxo-5-oxa-2,8-diaza-1(5,3)-pyrazolo[1,5-a]pyrimidin-4(3,2)-pyridinacyclononaphan-1^6-yl)phenyl)-3-methylurea]
IC50 (RET wt): 14.2 nM | IC50 (RET G810R): 98.2 nM | IC50 (RET V804M): 59 nM

SMILES: CCOC(=O)Nc1ccc(-c2c3nc4c(cnn4c2N)C(=O)NCCOc2ncc(F)cc2CN3)cc1 [Example 72, ethyl (4-((1^3E, 1^4E)-1^7-amino-4^5-fluoro-9-oxo-5-oxo-2,8-diaza-1(5,3)-pyrazolo[1,5-a]pyrimidin-4(3,2)-pyridinacyclononaphan-1^6-yl)phenyl)carbamate]
IC50 (RET wt): 0.56 nM | IC50 (RET G810R): 14 nM | IC50 (RET V804M): 1.4 nM

More lines, in order of falling IC50 (RET wt), values ahead:

IC50 (RET wt): 5280 nM | IC50 (TRKa): 46 nM
SMILES: C[C@H]1CNC(=O)c2cnn3cc(O)c(nc23)NCc2cc(F)cnc2O1 [Compound 2, (S, 1^3E, 1^4E)-4^5-fluoro-6-methyl-1^6-hydroxy-5-oxa-2,8-diaza-1(5,3)-pyrazolo[1,5-a]pyrimidina-4(3,2)-pyridinacyclononaphan-9-one]

IC50 (RET wt): 15 nM | IC50 (TRKa): 925 nM
SMILES: Cc1ccc(-c2cn3ncc4c3nc2NCc2cc(F)cnc2O[C@@H](C)CNC4=O)cc1 [Compound 11, (S, 1^3E, 1^4E)-1^6-(4-methylphenyl)-4^5-fluoro-6-methyl-5-oxa-2,8-diaza-1(5,3)-pyrazolo[1,5-a]pyrimidina-4(3,2)-pyridinacyclononaphan-9-one]

IC50 (RET wt): 13 nM | IC50 (RET G810R): > 10000 nM | IC50 (RET V804M): > 10000 nM | IC50 (BTK): 2070 nM
SMILES: C[C@H]1CNC(=O)c2cnn3cc(C4=CCCC4)c(nc23)NCc2cc(F)cnc2O1 [Compound 41, (S, 1^3E, 1^4E)-1^6-(cyclopent-1-en-1-yl)-4^5-fluoro-6-methyl-5-oxa-2,8-diaza-1(5,3)-pyrazolo[1,5-a]pyrimidin-4(3,2)-pyridinacyclononaphan-9-one]

IC50 (RET wt): 1.2 nM | IC50 (RET G810R): 23 nM | IC50 (RET V804M): 1.6 nM
SMILES: CCOC(=O)Nc1ccc(-c2c3nc4c(cnn4c2N)C(=O)NC[C@H](C)Oc2ncc(F)cc2CN3)c(F)c1 [Example 71, ethyl (4-((S, 1^3E, 1^4E)-1^7-amino-4^5-fluoro-6-methyl-9-oxo-5-oxo-2,8-diaza-1(5,3)-pyrazolo[1,5-a]pyrimidin-4(3,2)-pyridinacyclononaphan-1^6-yl)-3-fluorophenyl)carbamate]

IC50 (RET wt): 0.6 nM | IC50 (RET G810R): 15 nM | IC50 (RET V804M): 0.99 nM
SMILES: CCNC(=O)Nc1ccc(-c2c3nc4c(cnn4c2N)C(=O)NC[C@H](C)Oc2ncc(F)cc2CN3)cc1 [Example 80, 1-(4-((S, 1^3E, 1^4E)-1^7-amino-4^5-fluoro-6-methyl-9-oxo-5-oxa-2,8-diaza-1(5,3)-pyrazolo[1,5-a]pyrimidin-4(3,2)-pyridinacyclononaphan-1^6-yl)-phenyl)-3-ethylurea]

IC50 (RET wt): 0.26 nM | IC50 (RET G810R): 15 nM | IC50 (RET V804M): 0.94 nM
SMILES: CCOC(=O)Nc1ccc(-c2c3nc4c(cnn4c2N)C(=O)NC[C@H](C)Oc2ncc(F)cc2CN3)cc1 [Example 62, ethyl (4-((S, 1^3E, 1^4E)-1^7-amino-4^5-fluoro-6-methyl-9-oxo-5-oxa-2,8-diaza-1(5,3)-pyrazolino [1,5-a]pyrimidin-4(3,2)-pyridinacyclononaphan-1^6-yl)-phenyl)carbamate]
